The subject of this assay is ATF4. The assay is described as follows: HEK-ATF4 High Content Imaging assay (prevention of Tunicamycin induced ISR). In kind it is cell-based. The conditions noted are these: Homo sapiens, Wild-type HEK293 cells, 6 h incubation, ATF4 signal ratio between nucleus and cytoplasm. As for the experimental part:
Example compounds were tested in the HEK-ATF4 High Content Imaging assay to assess their pharmacological potency to prevent Tunicamycin induced ISR. Wild-type HEK293 cells were plated in 384-well imaging assay plates at a density of 12,000 cells per well in growth medium (containing DMEM/F12, 10% FBS, 2 mM L-Glutamine, 100 U/mL Penicillin—100 μg/mL Streptomycin) and incubated at 37° C., 5% CO2. 24 h later, the medium was changed to 50 μL assay medium per well (DMEM/F12, 0.3% FBS, 2mM L-Glutamine, 100 U/mL Penicillin—100 μg/mL Streptomycin). Example compounds were serially diluted in DMSO, spotted into intermediate plates and prediluted with assay medium containing 3.3 […] Tunicamycin to give an 11-fold excess of final assay concentration. In addition to the example compound testing area, the plates also contained multiples of control wells for assay normalization purposes, wells containing Tunicamycin but no example compounds (High control), as well as wells containing neither example compound nor Tunicamycin (Low control). The assay was started by transferring 5 μL from the intermediate plate into the assay plates, followed by incubation for 6 h at 37° C., 5% CO2. Subsequently, cells were fixed (4% PFA in PBS, 20 min at r.t.) and submitted to indirect ATF4 immunofluorescence staining (primary antibody rabbit anti ATF4, clone D4B8, Cell Signaling Technologies; secondary antibody Alexa Fluor 488 goat anti-rabbit IgG (H+L), Thermofisher Scientific). Nuclei were stained using Hoechst dye (Thermofisher Scientific), and plates were imaged on an Opera Phenix High Content imaging platform equipped with 405 nm and 488 nm excitation. Finally, images were analyzed using script based algorithms. The main readout HEK-ATF4 monitored the ATF4 signal ratio between nucleus and cytoplasm. Tunicamycin induced an increase in the overall ATF4 ratio signal, which was prevented by ISR modulating example compounds. In addition, HEK-CellCount readout was derived from counting the number of stained nuclei corresponding to healthy cells. This readout served as an internal toxicity control.

Molecules are shown by their SMILES. Counter-ions that a name gives are not always drawn.

In the case of `O=C(COc1ccc(Cl)c(F)c1)N[C@H]1CC[C@H](C(=O)N[C@H]2CC[C@H](OC(F)(F)F)C2)NC1` (single isomer, unassigned) [Example 53], the IC50 is 0.001 to 0.5 µM.
With `O=C(COc1ccc(Cl)c(F)c1)N[C@H]1CC[C@H](C(=O)N[C@@H]2CC[C@@H](OC(F)(F)F)C2)NC1` (single isomer, unassigned) [Example 54], the IC50 is 0.5 to 2 µM.
As for `O=C(COc1ccc(Cl)c(F)c1)N[C@H]1CC[C@H](C(=O)NCCCOC(F)(F)F)NC1` [Example 2, (2R,5S)-5-[2-(4-chloro-3-fluorophenoxy)acetamido]-N-[3-(trifluoromethoxy)propyl]piperidine-2-carboxamide hydrochloride], the IC50 lay in the range of 2 to 15 µM.
Consider `O=C(COc1ccc(Cl)c(F)c1)N[C@H]1CC[C@H](C(=O)NCc2ccc(C(F)(F)F)cc2)NC1` [Example 4, (2R,5S)-5-[2-(4-chloro-3-fluorophenoxy)acetamido]-N-{[4-(trifluoromethyl)phenyl]methyl}piperidine-2-carboxamide], for which the IC50 was 0.001 to 0.5 µM.
Consider `O=C(COc1ccc(Cl)c(F)c1)N[C@H]1CC[C@H](C(=O)N2CC(OCCOC(F)(F)F)C2)NC1` [Example 5, 2-(4-chloro-3-fluorophenoxy)-N-[(3S,6R)-6-{3-[2-(trifluoromethoxy)ethoxy]azetidine-1-carbonyl}piperidin-3-yl]acetamide], for which the IC50 lay within 2 to 15 µM.
`O=C(COc1ccc(Cl)c(F)c1)N[C@H]1CC[C@H](C(=O)NOCCOC(F)(F)F)NC1` [Example 6, (2R,5S)-5-[2-(4-chloro-3-fluorophenoxy)acetamido]-N-[2-(trifluoromethoxy)ethoxy]piperidine-2-carboxamide]: the IC50 was in the range of 2 to 15 µM.
Under `O=C(COc1ccc(Cl)c(F)c1)N[C@H]1CC[C@H](C(=O)Nc2ccc(Cl)cc2)NC1` [Example 8, (2R,5S)-5-[2-(4-chloro-3-fluorophenoxy)acetamido]-N-(4-chlorophenyl)piperidine-2-carboxamide] stands 0.001 to 0.5 µM.
For `O=C(COc1ccc(Cl)c(F)c1)N[C@@H]1CC[C@@H](C(=O)Nc2ccc(Cl)cc2)NC1` [Example 9, (2S,5R)-5-[2-(4-chloro-3-fluorophenoxy)acetamido]-N-(4-chlorophenyl)piperidine-2-carboxamide], the IC50 fell in the range of 2 to 15 µM.
In the case of `O=C(COc1ccc(Cl)c(F)c1)N[C@H]1CC[C@H](C(=O)Nc2ccccc2)NC1` [Example 10, (2R,5S)-5-[2-(4-chloro-3-fluorophenoxy)acetamido]-N-phenylpiperidine-2-carboxamide], the IC50 is 2 to 15 µM.
For the molecule `O=C(COc1ccc(Cl)c(F)c1)N[C@H]1CC[C@H](C(=O)Nc2cccc(Cl)c2)NC1` [Example 11, (2R,5S)-5-[2-(4-chloro-3-fluorophenoxy)acetamido]-N-(3-chlorophenyl)piperidine-2-carboxamide], the IC50 lay in the range of 0.001 to 0.5 µM.
Under `O=C(COc1ccc(Cl)c(F)c1)N[C@H]1CC[C@H](C(=O)Nc2cccc(C(F)(F)F)c2)NC1` [Example 12, (2R,5S)-5-[2-(4-chloro-3-fluorophenoxy)acetamido]-N-[3-(trifluoromethyl)phenyl]piperidine-2-carboxamide] stands 0.001 to 0.5 µM; under `O=C(COc1ccc(Cl)c(F)c1)N[C@H]1CC[C@H](C(=O)Nc2cccc(OC(F)(F)F)c2)NC1` [Example 13, (2R,5S)-5-[2-(4-chloro-3-fluorophenoxy)acetamido]-N-[3-(trifluoromethoxy)phenyl]piperidine-2-carboxamide], 0.001 to 0.5 µM.
In the case of `O=C(COc1ccc(Cl)c(F)c1)N[C@H]1CC[C@H](C(=O)NCc2ccc(Cl)cn2)NC1` [Example 14, (2R,5S)-5-[2-(4-chloro-3-fluorophenoxy)acetamido]-N-[(5-chloropyridin-2-yl)methyl]piperidine-2-carboxamide], the concentration for half-maximal inhibition (IC50) fell in the range of 2 to 15 µM.
For the molecule `O=C(COc1ccc(Cl)c(F)c1)N[C@H]1CC[C@H](C(=O)N[C@H]2CC[C@@H](OC(F)(F)F)CC2)NC1` [Example 15, (2R,5S)-5-[2-(4-chloro-3-fluorophenoxy)acetamido]-N-[(1s,4s)-4-(trifluoromethoxy)cyclohexyl]piperidine-2-carboxamide], the IC50 lay within 2 to 15 µM.
Consider `COc1cc(Cl)ccc1NC(=O)[C@H]1CC[C@H](NC(=O)COc2ccc(Cl)c(F)c2)CN1` [Example 16, (2R,5S)-N-(4-chloro-2-methoxyphenyl)-5-[2-(4-chloro-3-fluorophenoxy)acetamido]piperidine-2-carboxamide], for which the IC50 lay within 2 to 15 µM.
`O=C(COc1ccc(Cl)c(F)c1)N[C@H]1CC[C@H](C(=O)NCc2ccc(C(F)(F)F)o2)NC1` [Example 17, (2R,5S)-5-[2-(4-chloro-3-fluorophenoxy)acetamido]-N-{[5-(trifluoromethyl)furan-2-yl]methyl}piperidine-2-carboxamide]: the IC50 lay within 2 to 15 µM.
With `O=C(COc1ccc(Cl)c(F)c1)N[C@H]1CC[C@H](C(=O)NCc2cc(C(F)(F)F)co2)NC1` [Example 18, (2R,5S)-5-[2-(4-chloro-3-fluorophenoxy)acetamido]-N-{[4-(trifluoromethyl)furan-2-yl]methyl}piperidine-2-carboxamide], the IC50 lay within 0.001 to 0.5 µM.
For the molecule `O=C(COc1ccc(Cl)c(F)c1)N[C@H]1CC[C@H](C(=O)NC[C@H]2CC[C@@H](C(F)(F)F)CC2)NC1` [Example 19, (2R,5S)-5-[2-(4-chloro-3-fluorophenoxy)acetamido]-N-{[(1s,4s)-4-(trifluoromethyl)cyclohexyl]methyl}piperidine-2-carboxamide], the IC50 fell in the range of 2 to 15 µM.
As for `COc1cccc(NC(=O)[C@H]2CC[C@H](NC(=O)COc3ccc(Cl)c(F)c3)CN2)c1` [Example 20, (2R,5S)-5-[2-(4-chloro-3-fluorophenoxy)acetamido]-N-(3-methoxyphenyl)piperidine-2-carboxamide], the figure is 2 to 15 µM.
Under `O=C(COc1ccc(Cl)c(F)c1)N[C@H]1CC[C@H](C(=O)Nc2ccc(F)c(C(F)(F)F)c2)NC1` [Example 21, (2R,5S)-5-[2-(4-chloro-3-fluorophenoxy)acetamido]-N-[4-fluoro-3-(trifluoromethyl)phenyl]piperidine-2-carboxamide] stands 0.001 to 0.5 µM; under `O=C(COc1ccc(Cl)c(F)c1)N[C@H]1CC[C@H](C(=O)Nc2cncc(C(F)(F)F)c2)NC1` [Example 22, (2R,5S)-5-[2-(4-chloro-3-fluorophenoxy)acetamido]-N-[5-(trifluoromethyl)pyridin-3-yl]piperidine-2-carboxamide], 0.001 to 0.5 µM.
Consider `O=C(COc1ccc(Cl)c(F)c1)N[C@H]1CC[C@H](C(=O)Nc2cccc(F)c2)NC1` [Example 23, (2R,5S)-5-[2-(4-chloro-3-fluorophenoxy)acetamido]-N-(3-fluorophenyl)piperidine-2-carboxamide], for which the IC50 was in the range of 0.5 to 2 µM.
Under `O=C(COc1ccc(Cl)c(F)c1)N[C@H]1CC[C@H](C(=O)Nc2cccc(C(F)F)c2)NC1` [Example 24, (2R,5S)-5-[2-(4-chloro-3-fluorophenoxy)acetamido]-N-[3-(difluoromethyl)phenyl]piperidine-2-carboxamide] stands 0.001 to 0.5 µM.
Turning to `O=C(COc1ccc(Cl)c(F)c1)N[C@H]1CC[C@H](C(=O)Nc2ccc(Cl)cn2)NC1` [Example 25, (2R,5S)-5-[2-(4-chloro-3-fluorophenoxy)acetamido]-N-(5-chloropyridin-2-yl)piperidine-2-carboxamide], the IC50 was in the range of 0.5 to 2 µM.
Regarding `Cc1c(NC(=O)[C@H]2CC[C@H](NC(=O)COc3ccc(Cl)c(F)c3)CN2)cnn1CC(F)(F)F` [Example 26, (2R,5S)-5-[2-(4-chloro-3-fluorophenoxy)acetamido]-N-[5-methyl-1-(2,2,2-trifluoroethyl)-1H-pyrazol-4-yl]piperidine-2-carboxamide], the IC50 was in the range of 2 to 15 µM.
Under `O=C(COc1ccc(Cl)c(F)c1)N[C@H]1CC[C@H](C(=O)N[C@H]2C[C@@H](OC(F)(F)F)C2)NC1` [Example 27, (2R,5S)-5-[2-(4-chloro-3-fluorophenoxy)acetamido]-N-[(1s,3s)-3-(trifluoromethoxy)cyclobutyl]piperidine-2-carboxamide] stands 0.5 to 2 µM.
Consider `Cc1cc(C)cc(NC(=O)[C@H]2CC[C@H](NC(=O)COc3ccc(Cl)c(F)c3)CN2)c1` [Example 28, (2R,5S)-5-[2-(4-chloro-3-fluorophenoxy)acetamido]-N-(3,5-dimethylphenyl)piperidine-2-carboxamide], for which the IC50 lay within 2 to 15 µM.
On to `O=C(COc1ccc(Cl)c(F)c1)N[C@H]1CC[C@H](C(=O)NCCCCC(F)(F)F)NC1` [Example 29, (2R,5S)-5-[2-(4-chloro-3-fluorophenoxy)acetamido]-N-(5,5,5-trifluoropentyl)piperidine-2-carboxamide], for which the IC50 lay within 2 to 15 µM.
Regarding `O=C(COc1ccc(Cl)c(F)c1)N[C@H]1CC[C@H](C(=O)Nc2cccc(OC(F)F)c2)NC1` [Example 30, (2R,5S)-5-[2-(4-chloro-3-fluorophenoxy)acetamido]-N-[3-(difluoromethoxy)phenyl]piperidine-2-carboxamide], the IC50 was in the range of 0.5 to 2 µM.

In general, IC50 refers to the concentration needed to halve the response being measured.

For the origin of these results see US20230391725A1, “MODULATORS OF THE INTEGRATED STRESS RESPONSE PATHWAY” (Evotec International GmbH, priority 2020, published 2023).
